Reference: patent US10544143B2, “4-azaindole compounds” (BRISTOL-MYERS SQUIBB COMPANY, priority 2017, dated 2020)
Where two headings read alike, the source gives them in different places.

What was measured:
human TLR7 = human TLR7 (Homo sapiens (Human), UniProt Q9NYK1); experiment: TLR7 inhibition reporter assay (HEK-Blue SEAP); type: cell-based
human TLR9 = human TLR9 (Homo sapiens (Human), UniProt Q9NR96); experiment: TLR9 inhibition reporter assay (HEK-Blue SEAP);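 further: SEAP driven by an IFN-β minimal promoter with NF-κB and AP-1 sites, read after 22 h, compounds dosed 0.05 nM–50 µM, inhibition scaled between agonist plus DMSO and reference-inhibitor wells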
human TLR8 = human TLR8 (Homo sapiens (Human), UniProt Q9NR97); experiment: TLR8 inhibition reporter assay (HEK-Blue SEAP);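 further: SEAP driven by IFN-β minimal promoter carrying NF-κB and AP-1 sites, compounds dosed 0.05 nM to 50 µM for 22 h, inhibition scaled between agonist-plus-DMSO and reference-inhibitor wells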
[1] = HEK-Blue cells overexpressing human TLR7, SEAP reporter, gardiquimod 7.5 μM
[2] = read-out: TLR9 IC50, HEK-Blue cells overexpressing human TLR9, SEAP reporter, ODN2006 5 nM
[3] = read-out: TLR8 IC50, HEK-Blue cells overexpressing human TLR8, SEAP reporter, R848 15.9 μM
[4] = HEK-Blue human TLR7 cells, gardiquimod 7.5 μM
[5] = read-out: TLR9 IC50, HEK-Blue human TLR9 cells, ODN2006 5 nM
[6] = read-out: TLR8 IC50, HEK-Blue human TLR8 cells, R848 15.9 μM
[7] = HEK-Blue cells overexpressing human TLR7, gardiquimod 7.5 μM stimulation, SEAP reporter
[8] = read-out: TLR9 IC50, HEK-Blue cells overexpressing human TLR9, ODN2006 5 nM stimulation, SEAP reporter
[9] = read-out: TLR8 IC50, HEK-Blue cells overexpressing human TLR8, R848 15.9 μM stimulation, SEAP reporter

human TLR7, sequence (Q9NYK1 27-1049): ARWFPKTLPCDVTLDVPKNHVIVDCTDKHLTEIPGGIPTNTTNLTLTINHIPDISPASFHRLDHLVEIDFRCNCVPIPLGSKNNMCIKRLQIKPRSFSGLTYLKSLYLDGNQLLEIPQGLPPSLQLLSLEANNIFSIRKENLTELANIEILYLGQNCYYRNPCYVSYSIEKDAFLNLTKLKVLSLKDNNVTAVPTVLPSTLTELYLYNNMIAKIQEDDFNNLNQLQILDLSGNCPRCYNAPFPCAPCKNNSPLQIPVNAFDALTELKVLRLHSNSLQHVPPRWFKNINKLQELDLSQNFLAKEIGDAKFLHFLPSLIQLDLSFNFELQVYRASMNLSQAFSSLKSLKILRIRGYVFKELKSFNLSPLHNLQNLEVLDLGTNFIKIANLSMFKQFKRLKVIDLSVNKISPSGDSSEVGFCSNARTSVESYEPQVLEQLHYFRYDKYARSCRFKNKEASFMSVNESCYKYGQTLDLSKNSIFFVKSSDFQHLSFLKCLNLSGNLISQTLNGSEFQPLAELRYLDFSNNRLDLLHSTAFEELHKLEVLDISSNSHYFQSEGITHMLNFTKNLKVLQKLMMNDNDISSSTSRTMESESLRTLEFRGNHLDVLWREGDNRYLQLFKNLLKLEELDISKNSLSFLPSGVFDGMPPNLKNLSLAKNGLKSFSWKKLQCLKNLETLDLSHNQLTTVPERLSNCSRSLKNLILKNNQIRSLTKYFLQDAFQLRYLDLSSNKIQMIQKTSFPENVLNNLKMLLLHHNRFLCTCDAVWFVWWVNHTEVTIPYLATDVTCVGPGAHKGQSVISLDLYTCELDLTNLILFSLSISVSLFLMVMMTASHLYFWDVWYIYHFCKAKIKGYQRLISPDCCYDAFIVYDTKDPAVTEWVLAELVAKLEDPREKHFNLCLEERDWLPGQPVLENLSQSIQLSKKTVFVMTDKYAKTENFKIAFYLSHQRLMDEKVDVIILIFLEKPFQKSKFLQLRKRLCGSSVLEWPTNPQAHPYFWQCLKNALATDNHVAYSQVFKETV
human TLR9, sequence (Q9NR96 26-1032): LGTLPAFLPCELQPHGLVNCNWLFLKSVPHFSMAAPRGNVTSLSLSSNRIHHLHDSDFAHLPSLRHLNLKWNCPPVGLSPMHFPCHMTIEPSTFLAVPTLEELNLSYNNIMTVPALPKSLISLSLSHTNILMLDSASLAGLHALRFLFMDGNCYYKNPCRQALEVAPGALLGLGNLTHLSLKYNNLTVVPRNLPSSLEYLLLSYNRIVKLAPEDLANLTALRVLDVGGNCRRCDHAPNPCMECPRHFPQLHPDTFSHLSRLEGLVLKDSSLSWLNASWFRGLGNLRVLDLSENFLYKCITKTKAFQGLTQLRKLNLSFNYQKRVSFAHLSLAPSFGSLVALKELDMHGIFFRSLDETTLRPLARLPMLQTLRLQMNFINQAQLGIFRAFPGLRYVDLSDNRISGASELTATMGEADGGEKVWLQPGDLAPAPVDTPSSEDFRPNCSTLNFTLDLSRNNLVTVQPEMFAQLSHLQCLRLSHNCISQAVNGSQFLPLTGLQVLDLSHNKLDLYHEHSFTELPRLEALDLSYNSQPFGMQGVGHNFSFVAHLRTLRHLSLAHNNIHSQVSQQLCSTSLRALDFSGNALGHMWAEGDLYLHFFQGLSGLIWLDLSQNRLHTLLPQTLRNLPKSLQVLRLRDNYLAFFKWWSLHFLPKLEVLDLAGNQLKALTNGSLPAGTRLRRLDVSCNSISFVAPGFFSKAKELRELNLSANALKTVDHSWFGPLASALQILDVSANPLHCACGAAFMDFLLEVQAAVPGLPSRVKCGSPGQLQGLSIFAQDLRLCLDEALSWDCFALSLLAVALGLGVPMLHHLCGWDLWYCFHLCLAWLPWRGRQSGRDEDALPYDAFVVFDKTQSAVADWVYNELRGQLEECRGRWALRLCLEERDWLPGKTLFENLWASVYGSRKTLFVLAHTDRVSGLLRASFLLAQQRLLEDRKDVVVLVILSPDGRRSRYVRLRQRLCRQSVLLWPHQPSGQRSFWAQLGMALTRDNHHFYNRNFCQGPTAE
human TLR8, sequence (Q9NR97 27-1041): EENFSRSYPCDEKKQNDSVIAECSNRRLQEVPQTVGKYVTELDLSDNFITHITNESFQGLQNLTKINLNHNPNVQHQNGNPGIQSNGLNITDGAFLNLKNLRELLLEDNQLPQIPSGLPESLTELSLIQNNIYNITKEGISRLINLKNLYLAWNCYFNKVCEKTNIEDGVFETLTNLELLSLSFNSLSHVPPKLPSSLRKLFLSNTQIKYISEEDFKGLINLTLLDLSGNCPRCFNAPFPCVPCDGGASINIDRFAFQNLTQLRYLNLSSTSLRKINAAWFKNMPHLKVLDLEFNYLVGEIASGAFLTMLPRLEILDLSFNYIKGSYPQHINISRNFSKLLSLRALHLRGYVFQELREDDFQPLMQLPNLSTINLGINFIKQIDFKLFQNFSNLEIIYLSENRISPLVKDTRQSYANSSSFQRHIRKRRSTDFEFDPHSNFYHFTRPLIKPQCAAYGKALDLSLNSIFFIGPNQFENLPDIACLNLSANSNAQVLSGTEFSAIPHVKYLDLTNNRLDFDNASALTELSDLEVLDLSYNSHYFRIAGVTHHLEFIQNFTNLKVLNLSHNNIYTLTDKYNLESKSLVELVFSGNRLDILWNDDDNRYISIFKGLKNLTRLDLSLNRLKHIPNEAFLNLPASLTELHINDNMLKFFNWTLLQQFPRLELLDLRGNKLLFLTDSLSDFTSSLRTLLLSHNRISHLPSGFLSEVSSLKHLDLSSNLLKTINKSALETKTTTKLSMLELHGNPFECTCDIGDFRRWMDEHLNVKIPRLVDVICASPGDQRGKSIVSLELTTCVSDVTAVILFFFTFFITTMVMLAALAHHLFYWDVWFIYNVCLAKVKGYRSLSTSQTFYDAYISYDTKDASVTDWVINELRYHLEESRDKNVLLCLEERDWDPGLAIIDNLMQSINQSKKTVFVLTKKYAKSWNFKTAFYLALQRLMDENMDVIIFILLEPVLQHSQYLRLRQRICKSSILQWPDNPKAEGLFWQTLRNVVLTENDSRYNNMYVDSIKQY

## Cc1c(-c2[nH]c3ccc(C4CCN(CC(C)(C)O)CC4)nc3c2C(C)C)cn(C)c(=O)c1C [Example 546]
Human TLR7; [1]
  IC50: 9.5 nM
Human TLR9; [2]
  IC50: 1380 nM
Human TLR8; [3]
  IC50: 1.6 nM

## Cc1c(-c2[nH]c3cc(F)c(C4CCC(NC5CCOCC5)CC4)nc3c2C(C)C)cn2ncnc2c1C (stereo not drawn) [Example 505]
Human TLR7; [1]
  IC50: 3.5 nM
Human TLR9; [2]
  IC50: 7600 nM
Human TLR8; [3]
  IC50: 4.9 nM

## CNC(=O)CN(C)C1CCC(c2ccc3[nH]c(-c4cn5ncnc5c(C)c4C)c(C(C)C)c3n2)CC1 (stereo not drawn) [Example 422]
Human TLR7; [1]
  IC50: 15 nM
Human TLR9; [2]
  IC50: 6240 nM
Human TLR8; [3]
  IC50: 35 nM

## Cc1c(-c2[nH]c3ccc(N4C[C@@H](C)N(CCC(N)=O)C[C@H]4C)nc3c2C(C)C)cn2ncnc2c1C [Example 798]
Human TLR7; [4]
  IC50: 4.2 nM
Human TLR9; [5]
  IC50: 22300 nM
Human TLR8; [6]
  IC50: 5.7 nM

## Cc1c(-c2[nH]c3ccc(C4CC(NCC5(C)COC5)C4)nc3c2C(C)C)cn2ncnc2c1C (stereo not drawn) [Example 637]
Human TLR7; [1]
  IC50: 3.8 nM
Human TLR9; [2]
  IC50: 1360 nM
Human TLR8; [3]
  IC50: 0.53 nM

## Cc1c(-c2[nH]c3ccc(N4C[C@@H](C)N(CCCS(C)(=O)=O)[C@@H](C)C4)nc3c2C(C)C)cn2ncnc2c1C [Example 868]
Human TLR7; [4]
  IC50: 12 nM
Human TLR9; [5]
  IC50: > 50000 nM
Human TLR8; [6]
  IC50: 6.1 nM

## COc1cc(-c2[nH]c3ccc(C4CCC(N(C)CCC#N)CC4)nc3c2C(C)C)cn2ncnc12 (stereo not drawn) [Example 166]
Human TLR7; [7]
  IC50: 1.5 nM
Human TLR9; [8]
  IC50: 2190 nM
Human TLR8; [9]
  IC50: 18 nM

## Cc1c(-c2[nH]c3ccc(C4CCC(N5CC(C(=O)N(C)C)C5)CC4)nc3c2C(C)C)cn2ncnc2c1C (stereo not drawn) [Example 1047]
Human TLR7; [4]
  IC50: 1.3 nM
Human TLR9; [5]
  IC50: 4490 nM
Human TLR8; [6]
  IC50: 3.5 nM

## Cc1c(-c2[nH]c3ccc(CCC4CN(CC(=O)N(C)C)C4)nc3c2C(C)C)cn2ncnc2c1C [Example 696]
Human TLR7; [1]
  IC50: 75 nM
Human TLR9; [2]
  IC50: 1310 nM
Human TLR8; [3]
  IC50: 36 nM

## Cc1c(-c2[nH]c3ccc(N4CC5(CN(CCC(N)=O)C5)C4)nc3c2C(C)C)cn2ncnc2c1C [Example 1005]
Human TLR7; [4]
  IC50: 4.4 nM
Human TLR9; [5]
  IC50: 1660 nM
Human TLR8; [6]
  IC50: 7.4 nM

## Cc1c(-c2[nH]c3ccc(N4CCN(C(C)C)[C@H](C)C4)nc3c2C(C)C)cn2ncnc2c1C [Example 851]
Human TLR7; [4]
  IC50: 5.9 nM
Human TLR9; [5]
  IC50: 9980 nM
Human TLR8; [6]
  IC50: 2.2 nM

## CNC1CCC(c2ccc3[nH]c(-c4cn5ncnc5c(C)c4C)c(C(C)C)c3n2)CC1 (single isomer, unassigned) [Example 369, 4-(2-(7,8-dimethyl-[1,2,4]triazolo[1,5-a]pyridin-6-yl)-3-isopropyl-1H-pyrrolo[3,2-b]pyridin-5-yl)-N-methylcyclohexanamine]
Human TLR7; [7]
  IC50: 0.46 nM
Human TLR9; [8]
  IC50: 402 nM
Human TLR8; [9]
  IC50: 1.3 nM

## CNC(=O)CN1CCC(c2ccc3[nH]c(-c4cc(C)c(=O)n(C)c4)c(C(C)C)c3n2)CC1 [Example 530]
Human TLR7; [1]
  IC50: 7.1 nM
Human TLR9; [2]
  IC50: 4760 nM
Human TLR8; [3]
  IC50: 8.8 nM

## COc1cc(-c2[nH]c3ccc(N4CC(N)C4)nc3c2C(C)C)cn2ncnc12 [Example 16]
Human TLR7; [7]
  IC50: 0.6 nM
Human TLR9; [8]
  IC50: 635 nM
Human TLR8; [9]
  IC50: 2.1 nM

## Cc1c(-c2[nH]c3ccc(N4C[C@H](C)N(C(=O)CN(CCO)C(C)(C)C)C[C@H]4C)nc3c2C(C)C)cn2ncnc2c1C [Example 954]
Human TLR7; [4]
  IC50: 1.9 nM
Human TLR9; [5]
  IC50: 20900 nM
Human TLR8; [6]
  IC50: 36 nM

## Cc1c(-c2[nH]c3ccc(C4CCC(NCCS(N)(=O)=O)CC4)nc3c2C(C)C)cn2ncnc2c1C (stereo not drawn) [Example 446]
Human TLR7; [1]
  IC50: 0.91 nM
Human TLR9; [2]
  IC50: 364 nM
Human TLR8; [3]
  IC50: 0.91 nM

## COc1cc(-c2[nH]c3ccc(N4CCN(CCC(C)C)CC4)nc3c2C(C)C)cn2ncnc12 [Example 110]
Human TLR7; [7]
  IC50: 1.9 nM
Human TLR9; [8]
  IC50: 4540 nM
Human TLR8; [9]
  IC50: 0.76 nM

## Cc1c(-c2[nH]c3ccc(C4CCC(N(C)CC(=O)N(C)C)CC4)nc3c2C(C)C)cn2ncnc2c1C (stereo not drawn) [Example 410]
Human TLR7; [1]
  IC50: 5 nM
Human TLR9; [2]
  IC50: 4920 nM
Human TLR8; [3]
  IC50: 6.5 nM

## CCCN1CC2(C1)CN(c1ccc3[nH]c(-c4cn5ncnc5c(C)c4C)c(C(C)C)c3n1)C2 [Example 1015]
Human TLR7; [4]
  IC50: 1.3 nM
Human TLR9; [5]
  IC50: 2380 nM
Human TLR8; [6]
  IC50: 7.8 nM

## [2H]C1([2H])NC([2H])([2H])C([2H])([2H])N(c2ccc3[nH]c(-c4cn5ncnc5c(C)c4C)c(C(C)C)c3n2)C1([2H])[2H] [Example 857]
Human TLR7; [4]
  IC50: 0.65 nM
Human TLR9; TLR9 IC50, HEK-Blue human TLR9 cells, ODN2006 5 nM
  IC50: 4400 nM
Human TLR8; TLR8 IC50, HEK-Blue human TLR8 cells, R848 15.9 μM
  IC50: 0.4 nM

## Cc1c(-c2[nH]c3ccc(N4CCN[C@@H](C(C)C)C4)nc3c2C(C)C)cn2ncnc2c1C [Example 983]
Human TLR7; [4]
  IC50: 0.82 nM
Human TLR9; [5]
  IC50: 6520 nM
Human TLR8; [6]
  IC50: 0.12 nM

## Cc1c(-c2[nH]c3ccc(C4CCC(N5CC(S(C)(=O)=O)C5)CC4)nc3c2C(C)C)cn2ncnc2c1C (stereo not drawn) [Example 448]
Human TLR7; [1]
  IC50: 7.5 nM
Human TLR9; [2]
  IC50: 7690 nM
Human TLR8; [3]
  IC50: 24 nM

## Cc1c(-c2[nH]c3ccc(C4CCC(NCC5CCCCS5(=O)=O)CC4)nc3c2C(C)C)cn2ncnc2c1C (stereo not drawn) [Example 464]
Human TLR7; [1]
  IC50: 0.68 nM
Human TLR9; [2]
  IC50: 1770 nM
Human TLR8; [3]
  IC50: 0.85 nM
